Source: PMC11673057, “Unlocking Testosterone Production by Biotransformation: Engineering a Fungal Model of Aspergillus nidulans Strain Deficient in Steroid 11α-Hydroxylase Activity and Expressing 17β-Hydroxysteroid Dehydrogenase Enzyme as Proof of Concept” (Biomolecules, 2024)

Molecular target: CYP68L1 (hydAN), steroid 11α-hydroxylase (Aspergillus nidulans, UniProt A0A6J3WXY1)
Assay: whole-cell fermentation of knockout strain expressing enzyme, HPLC
Assay type: cell-based
Details: 32 °C, 72 h; 11alpha-hydroxylation

Chain of CYP68L1 (hydAN), steroid 11α-hydroxylase (A0A6J3WXY1 entry or part of it): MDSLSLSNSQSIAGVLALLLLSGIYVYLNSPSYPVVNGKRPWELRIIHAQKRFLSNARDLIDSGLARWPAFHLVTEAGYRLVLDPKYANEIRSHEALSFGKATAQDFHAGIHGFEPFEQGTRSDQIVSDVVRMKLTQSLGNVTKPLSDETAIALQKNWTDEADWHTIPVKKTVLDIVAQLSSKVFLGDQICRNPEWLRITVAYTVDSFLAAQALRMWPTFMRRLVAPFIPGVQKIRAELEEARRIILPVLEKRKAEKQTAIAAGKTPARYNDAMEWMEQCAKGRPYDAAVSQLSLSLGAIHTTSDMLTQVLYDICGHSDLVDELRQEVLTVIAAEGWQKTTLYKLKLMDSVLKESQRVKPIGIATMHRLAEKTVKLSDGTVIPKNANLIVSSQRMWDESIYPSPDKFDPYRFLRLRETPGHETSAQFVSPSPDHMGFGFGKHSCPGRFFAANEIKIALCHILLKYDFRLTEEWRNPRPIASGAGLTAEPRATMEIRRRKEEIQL

In the case of `C[C@]12CCC(=O)C=C1CC[C@@H]1[C@@H]2CC[C@]2(C)C(=O)CC[C@@H]12` [AD, androstenedione], the “whole-cell fermentation of knockout strain expressing enzyme, HPLC” value is reported as “Hydroxylase activity was restored by expressing the hydAN gene encoding this CYP450 in the KOhydAN strain”.
